From article PMC12498190, “A Photocaged N‐Phosphonopiperidinone as a Selective Photo‐Cleavable DPP8/9 Inhibitor” (Chembiochem, 2025)

Target: T1, PREP (Homo sapiens, UniProt P48147)
T1 construct: endogenous in cells; host or cells: HEK293 (Cytion, Germany, 300192)
T1 sequence (P48147 1-710): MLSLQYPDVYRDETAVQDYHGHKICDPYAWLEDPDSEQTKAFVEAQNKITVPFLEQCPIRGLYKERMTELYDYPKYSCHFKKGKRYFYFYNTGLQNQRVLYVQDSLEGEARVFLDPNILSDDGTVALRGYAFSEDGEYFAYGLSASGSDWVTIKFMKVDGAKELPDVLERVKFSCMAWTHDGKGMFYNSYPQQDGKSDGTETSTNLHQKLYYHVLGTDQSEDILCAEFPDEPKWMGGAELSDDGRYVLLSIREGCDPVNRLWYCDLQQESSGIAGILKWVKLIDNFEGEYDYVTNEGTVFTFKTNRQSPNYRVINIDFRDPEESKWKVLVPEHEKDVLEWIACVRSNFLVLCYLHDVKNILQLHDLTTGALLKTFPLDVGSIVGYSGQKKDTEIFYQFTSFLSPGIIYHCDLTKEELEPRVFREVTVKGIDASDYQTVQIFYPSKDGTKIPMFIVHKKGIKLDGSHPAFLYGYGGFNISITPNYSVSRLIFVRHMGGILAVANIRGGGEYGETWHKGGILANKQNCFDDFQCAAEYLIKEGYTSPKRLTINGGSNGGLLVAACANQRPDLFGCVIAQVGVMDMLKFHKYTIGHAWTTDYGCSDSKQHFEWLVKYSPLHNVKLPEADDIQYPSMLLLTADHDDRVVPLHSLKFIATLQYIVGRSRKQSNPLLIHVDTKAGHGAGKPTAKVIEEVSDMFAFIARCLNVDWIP
Assay: In situ competitive ABPP in HEK293 cell culture, 70 kDa band
Assay type: cell-based
Conditions: pre-incubation 1 h with 20 µM or 10 µM (method), 10 µM 2 for 1 h, light 5 min
Description: Figure 2 Competitive ABPP with photo‐cleavable inhibitor 5 in HEK293 cells. A) Schematic overview of a competitive ABPP experiment. A proteome is pre‐incubated with a competitor, followed by a labeling reaction with an activity‐based probe (ABP). In the case of a photocaged inhibitor, the active compound can be released via irradiation. Target proteins of the competitor cannot be bound by the ABP, resulting in an absence of the respective protein band in‐gel analysis. Created in BioRender. Najdzion, M. (2025) https://BioRender.com/84zn8cb B) Gel‐based competitive ABPP experiment in HEK293 cell lysates with the broadband serine hydrolase ABP ≡FP or the DPP8/9‐directed ABP 2 and the photocaged inhibitor 5, at the indicated concentrations, after or without prior irradiation with green light for 5 min. The corresponding pre‐incubation time for 5 was 30 min. C) Corresponding in situ competitive ABPP experiment in HEK293 cell culture, again with 10 µM 2 for 1 h. […] HEK293 cells were irradiated with a green LED lamp in the presence of 0.5% DMSO for 5 min (‘light’), and cell viability was measured after 24 h. […] For both compounds, cell viability was measured under ‘dark’ (not irradiated) and ‘light’ (irradiated for 5 min with a green LED lamp after the addition of the inhibitor) conditions. […]

CCCCCc1ccc(SCCP(=O)(OCC)N2CCC[C@H](NC(=O)OCC3=C4C(C)=CC(C)=[N+]4[B-](C)(C)n4c(C)cc(C)c43)C2=O)cc1 (stereo partly shown) [Compound 5]
Competition of PREP labeling in live cells (in words): partially competed
